Patent publication US7470724B2, “Phosphonate compounds having immuno-modulatory activity” (Gilead Sciences, Inc., priority 2003, dated 2008)

Test: Pro-drug cleavage by human PBMC extracts
Assay type: in vitro ADME
Settings: cleavage rate per μg protein; 30 μM substrate, pH 6.5, 37° C., 10-120 minutes; disappearance of pro-drug by HPLC at 260 nm
Description: Fresh human PBMCs were obtained from patients undergoing leukophoresis; cells were shipped in plasma and processed within 26 h of draw. Purification was achieved using the Ficoll-Paque method: PBMC cells were harvested by centrifugation at 1200×g for 5 minutes and washed three times by re-suspension in RBC lysis buffer (155 mM NH4Cl, 0.1 mM EDTA, 10 mM KHCO3). Washed cells were suspended in lysis buffer (0.2×10^9 cells in 1 ml of 10 mM Tris, pH 7.4, 150 mM NaCl, 20 mM CaCl2, 1 mM DTT and 1% NP40) and incubated on ice for 20 minutes. The PBMC crude extract was centrifuged at 1000×g for 30 min to remove unlysed cells and the supernatant at 100,000×g for 1 h. The 100,000×g supernatant (PBMC Extract: P0) was harvested, snap frozen in liquid nitrogen and stored at −70° C.
Reaction mixtures contained 25 mM MesNa (pH 6.5), 100 mM NaCl, 1 mM DTT, 0.1% NP-40, 30 μM substrate, and varying amounts of enzyme in a final volume of 100 μl. The enzymatic reaction is performed at 37° C. for 10-120 minutes and stopped at 3-4 individual time points by adding 180 μl of ice cold methanol. Samples are incubated @−20° C. for 30 min, and centrifuged 13,000 RPM for 30 min (@ 4° C.). The supernatant is transferred to a 96 well plate and evaporated under vacuum using a speedvac. The precipitate is dissolved in 100 μl of 20 mM CH3COONH4+5% AcCN. The disappearance of pro-drug is measured by HPLC, monitoring at 260 nm. The specific activity of the PBMC Extract against the prodrugs tested is defined as: v (cleavage rate)/μg protein=pmoles/min/μg.

SMILES	Human PBMC extract specific activity [pmol/min/µg]
CCOC(=O)C(C)NP(=O)(CCC(C)(C)CCn1cnc2c(=O)[nH]c(N)nc21)Oc1ccccc1 (stereo not shown) [Example 130-1]	3.48
CCOC(=O)C(C)NP(=O)(CCC(C)(C)CCn1cnc2c(=O)[nH]c(N)nc21)N[C@@H](C)C(=O)OCC (stereo partly shown) [Example 130-2]	0.65
CCOC(=O)C(C)NP(=O)(/C=C/c1ccccc1Cn1cnc2c(=O)[nH]c(N)nc21)Oc1ccccc1 (stereo not shown) [Example 133-1]	4.9
CCOC(=O)C(C)NP(=O)(/C=C/c1ccccc1Cn1cnc2c(=O)[nH]c(N)nc21)N[C@@H](C)C(=O)OCC (stereo partly shown) [Example 133-2]	0.38
